From patent US20230099344A1, “COMPOUNDS AND METHODS FOR THE TARGETED DEGRADATION OF IRAK-4” (Arvinas Operations, Inc., priority 2021, published 2023)
Like-named read-outs stand apart in the source and are kept apart here.

What was measured:
Assay type in all cases: cell-based
[1] = molecular target: T1, IRAK-4 (Homo sapiens, UniProt Q9NWZ3); test: IRAK-4 ELISA, OCI-Ly10 degradation; set-up: endogenous in cells; conditions: treated overnight; for Dmax: OCI-Ly10, OCI-Ly10 cells
T1 sequence (Q9NWZ3 1-460): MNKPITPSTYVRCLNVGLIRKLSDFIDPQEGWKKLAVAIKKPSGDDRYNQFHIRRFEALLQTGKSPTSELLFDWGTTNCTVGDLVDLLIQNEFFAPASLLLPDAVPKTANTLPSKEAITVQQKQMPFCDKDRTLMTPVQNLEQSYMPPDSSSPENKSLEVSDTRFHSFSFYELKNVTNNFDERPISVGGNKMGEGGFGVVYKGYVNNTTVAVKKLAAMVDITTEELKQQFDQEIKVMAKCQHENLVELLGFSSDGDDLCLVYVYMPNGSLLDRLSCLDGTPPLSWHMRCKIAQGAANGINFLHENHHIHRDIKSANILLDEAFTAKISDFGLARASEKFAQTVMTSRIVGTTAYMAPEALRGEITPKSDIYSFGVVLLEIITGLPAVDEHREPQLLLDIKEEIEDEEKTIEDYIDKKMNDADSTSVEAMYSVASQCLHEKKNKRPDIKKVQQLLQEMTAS
Outline: (§1)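 OCI-Ly10 cells (seeded at 1×10^6/ml) or human PBMC (seeded at 2×10^6/ml) were treated with compound on the day of seeding and incubated overnight. Lysates were then assayed for remaining IRAK-4 protein by sandwich ELISA with a matched antibody pair.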

[2] = molecular target: T1, IRAK-4; test: IRAK-4 ELISA, PBMC degradation; set-up: endogenous in cells; host or cells: PBMC; conditions: treated overnight
Outline: as §1

[3] = tested on: IL6; test: IL-1β stimulated IL6 inhibition assay in PBMC; conditions: human PBMCs, IL-1β stimulation, compound overnight, IL6 by MSD after 24 hrs; for IC50: read-out: IL1β stim IL6 inhibition IC50; for Emax: read-out: IL1β stim IL6 inhibition Ymax
Description: (§2) IL-1β, LPS, or R848 Stimulated IL6 Inhibition and IL-1β Stimulated IL8 Inhibition Assay
(§3) Human PBMC cells were seeded at 2.0×10^6 cells/mL, treated with compound overnight, and dosed with the EC50 concentration of each stimulant (either IL-1B. LPS, or R848) was determined for each donor. After 24 hrs, media was collected and analyzed by MSD for IL6 and/or IL8 levels.

[4] = tested on: IL8; test: IL-1β stimulated IL8 inhibition assay in PBMC; conditions: human PBMCs, IL-1β stimulation, compound overnight, IL8 by MSD after 24 hrs; for IC50: read-out: IL1β stim IL8 inhibition IC50; for Emax: read-out: IL1β stim IL8 inhibition Ymax
Description: as §2, §3

| Compound | Dmax [1] | DC50 ([1]; OCI-Ly10 cells) | DC50 [2] | Dmax [2] | PBMC DC90 [2] | IC50 ([3]; Homo sapiens, PBMC, 24 h) | IC50 [4] | OCI-LY10 Dmax ([1]; OCI-Ly10 cells) | IC50 [3] | Emax ([3]; PBMC) | Emax [4] | PBMC Dmax [2] | IL1β stim IL6 inhibition Ymax [3] |
| --- | --- | --- | --- | --- | --- | --- | --- | --- | --- | --- | --- | --- | --- |
| CC(C)Oc1cc2c(cc1NC(=O)c1cnn3cccnc13)CN([C@H]1CC[C@@H](N3CC4(CN(c5ccc6c(c5)C(=O)N(C5CCC(=O)NC5=O)C6=O)C4)C3)CC1)C2=O (some centres unmarked) [Example 69] | ≥ 90% | < 10 nM | 1 to 5 nM | ≥ 90% | A (A represents a DC90 value <10.0 nM) | 10 to 50 nM | 10 to 50 nM | – | – | ≥ 90% | 80 to 90% | – | – |
| O=C1CCC(N2C(=O)c3ccc(N4CC(N5CCC(N6Cc7cc(NC(=O)c8cnn9cccnc89)c(N8CCC(N9CCC9)CC8)cc7C6=O)CC5)C4)cc3C2=O)C(=O)N1 (centres unmarked) [Example 99] | ≥ 90% | < 10 nM | 5 to 10 nM | 80 to 90% | D (D represents a DC90 value ≥50 nM) | 10 to 50 nM | 50 to 100 nM | – | – | ≥ 90% | 80 to 90% | – | – |
| O=C1CCC(N2C(=O)c3ccc(N4CCC(CN5CCC(N6Cc7cc(NC(=O)c8cnn9cccnc89)c(N8CCOCC8)cc7C6=O)CC5)CC4)cc3C2=O)C(=O)N1 (centres unmarked) [Example 32] | – | < 10 nM | 1 to 5 nM | – | C (C represents a DC90 value ≥25.0 nM and <50 nM) | – | ≥ 100 nM | D (D represents a Dmax value <70) | 10 to 50 nM | – | ≥ 90% | C (C represents a Dmax value ≥70 and <80) | A (A represents a Ymax value ≥90) |
| O=C1CCC(N2C(=O)c3ccc(N4CC(CN5CCC(N6Cc7cc(NC(=O)c8cnn9cccnc89)c(OCC8CC8)cc7C6=O)CC5)C4)cc3C2=O)C(=O)N1 (centres unmarked) [Example 86] | ≥ 90% | < 10 nM | 1 to 5 nM | ≥ 90% | B (B represents a DC90 value ≥10.0 nM and <25.0 nM) | < 10 nM | 10 to 50 nM | – | – | ≥ 90% | 70 to 80% | – | – |
| O=C1CCC(NC(=O)c2ccc(N3CC(CN4CCC(n5cc6cc(NC(=O)c7cnn8cccnc78)c(OCC7CC7)cc6n5)CC4)C3)cc2F)C(=O)N1 (centres unmarked) [Example 287] | ≥ 90% | < 10 nM | 1 to 5 nM | ≥ 90% | B (B represents a DC90 value ≥10.0 nM and <25.0 nM) | 50 to 100 nM | ≥ 100 nM | – | – | ≥ 90% | < 70% | – | – |
| COc1cc2nn([C@H]3CC[C@H](N(C)CC#Cc4ccc5c(c4)C(=O)N(C4CCC(=O)NC4=O)C5=O)CC3)cc2cc1NC(=O)c1cnn2cccnc12 (some centres unmarked) [Example 338] | ≥ 90% | < 10 nM | < 1 nM | ≥ 90% | A (A represents a DC90 value <10.0 nM) | < 10 nM | 10 to 50 nM | – | – | ≥ 90% | < 70% | – | – |
| CC(C)Oc1cc2c(cc1NC(=O)c1cnn3cccnc13)CN(C1CCN(C3CCN(c4ccc5c(c4)C(=O)N(C4CCC(=O)NC4=O)C5=O)CC3)CC1)C2=O (centres unmarked) [Example 64] | ≥ 90% | < 10 nM | < 1 nM | ≥ 90% | A (A represents a DC90 value <10.0 nM) | 10 to 50 nM | 50 to 100 nM | – | – | 80 to 90% | < 70% | – | – |

The next lines start with results.

| Dmax [1] | DC50 ([1]; OCI-Ly10 cells) | DC50 [2] | Dmax [2] | PBMC DC90 [2] | IC50 ([3]; Homo sapiens, PBMC, 24 h) | IC50 [4] | OCI-LY10 Dmax ([1]; OCI-Ly10 cells) | IC50 [3] | Compound | Emax ([3]; PBMC) | Emax [4] | PBMC Dmax [2] | IL1β stim IL6 inhibition Ymax [3] |
| --- | --- | --- | --- | --- | --- | --- | --- | --- | --- | --- | --- | --- | --- |
| ≥ 90% | < 10 nM | < 1 nM | 80 to 90% | A (A represents a DC90 value <10.0 nM) | 10 to 50 nM | ≥ 100 nM | – | – | O=C1CCC(N2C(=O)c3ccc(N4CCC(CN5CCC(N6Cc7cc(NC(=O)c8cnn9cccnc89)c(OCC8CC8)cc7C6=O)CC5)CC4)cc3C2=O)C(=O)N1 (centres unmarked) [Example 30] | ≥ 90% | – | – | – |
| ≥ 90% | < 10 nM | 1 to 5 nM | ≥ 90% | A (A represents a DC90 value <10.0 nM) | < 10 nM | < 10 nM | – | – | COc1cc2nn([C@H]3CC[C@H](N(C)C4CN(c5ccc6c(c5)CN(C5CCC(=O)NC5=O)C6=O)C4)CC3)cc2cc1NC(=O)c1cnn2cccnc12 (some centres unmarked) [Example 337] | ≥ 90% | < 70% | – | – |
